The source of these data is PMC5733478, “A Non-imaging High Throughput Approach to Chemical Library Screening at the Unmodified Adenosine-A3 Receptor in Living Cells” (Frontiers in Pharmacology, 2017).

Counter-ions that a name gives are not always drawn. Like-named read-outs stand apart in the source and are kept apart here.

The target of the experiment is T1, human A3AR (Homo sapiens, UniProt P0DMS8).
T1 construct: expressed in transfected cells
T1 sequence (P0DMS8 1-318): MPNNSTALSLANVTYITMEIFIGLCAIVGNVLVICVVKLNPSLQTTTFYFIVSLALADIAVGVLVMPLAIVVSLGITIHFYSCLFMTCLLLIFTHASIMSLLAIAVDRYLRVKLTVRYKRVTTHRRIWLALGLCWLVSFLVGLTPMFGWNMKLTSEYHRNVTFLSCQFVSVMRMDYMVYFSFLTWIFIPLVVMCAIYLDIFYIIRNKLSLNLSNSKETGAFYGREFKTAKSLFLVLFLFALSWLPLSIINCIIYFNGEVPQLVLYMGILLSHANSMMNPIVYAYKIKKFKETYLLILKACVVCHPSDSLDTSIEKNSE
The experiment can be described thus: LOPAC library primary screen: single concentration (10 μM) inhibition of 25 nM CA200645 binding, PHERAstar FS.

Where [1] appears, read: compounds tested at 10 µM, % of control wells (1% DMSO and 25 nM CA200645), whole live cells expressing the A3AR, mean ± SD, three experiments in duplicate.

For `COc1ccc(C2(O)OC(=O)C(c3ccc4c(c3)OCO4)=C2Cc2cc(OC)c(OC)c(OC)c2)cc1` (stereo not shown) [PD-156707], the “% 25 nM CA200645 binding” value worked out at 71.9 ± 8.4%. Still for that read-out and setting: the figure for `Oc1ccc2c3c1O[C@H]1c4[nH]c5ccccc5c4C[C@@]4(O)[C@@H](C2)N(CC2CC2)CC[C@]314` [Naltrindole hydrochloride] is 111.0 ± 9.1%. Still for that read-out and setting: the figure for `C[C@@H](c1ncncc1F)[C@](O)(Cn1cncn1)c1ccc(F)cc1F` [Voriconazole] is 96.1 ± 10.4%. Regarding `N=c1ccn2c(n1)O[C@H]1[C@H](O)[C@@H](CO)O[C@H]12` [Ancitabine hydrochloride], the “% 25 nM CA200645 binding” value was found to be 106.9 ± 5.2%. For the compound `CNCC(O)c1ccc(O)cc1` (racemic) [(±)-Synephrine], the “% 25 nM CA200645 binding” value is given as 90.7 ± 28.9%. The same measure, in the same setting: the figure for `O=C(Nc1nc2ccccc2n1CCN1CCOCC1)c1cccc([N+](=O)[O-])c1` [IRAK-1/4 Inhibitor I] is 61.3 ± 9.4%; for `C[C@@](Cc1ccc(O)c(O)c1)(NN)C(=O)O` [S-(-)-Carbidopa] it is 101.3 ± 7.8%. Same read-out and setting: the figure for `CC(=O)/C=C1\C(=O)N(C)c2ccccc21` [Supercinnamaldehyde] is 98.9 ± 0.6%; for `S=C(NC1CCCCC1)N1CCC(c2cnc[nH]2)CC1` [Thioperamide maleate] it is 99.7 ± 10.4%. On the same count and under the same terms, the figure for `Cl.c1ccc2c(c1)CCC[C@H]2Nc1nc2ccccc2[nH]1` [NS8593 hydrochloride] is 91.2 ± 11.5%; for `COC(=O)C(C)(N)Cc1ccc(O)cc1.Cl` (racemic) it is 108.9 ± 8.2%; for `CC(C)(C)C(=O)Oc1ccc(S(=O)(=O)Nc2ccccc2C(=O)NCC(=O)[O-])cc1.[Na+]` [Sivelestat sodium salt hydrate] it is 96.6 ± 6.4%. As to `NC1CCN(O)C1=O` (racemic) [(±)-HA-966], the “% 25 nM CA200645 binding” value is recorded as 96.6 ± 6.4%. Same read-out and setting: the figure for `CC(=O)N[C@@H](CS)C(=O)O` [N-Acetyl-L-Cysteine] is 100.3 ± 0.2%; for `Nc1nc(N)c2nc(-c3ccccc3)c(N)nc2n1` [Triamterene] it is 95.3 ± 10.4%.

`Cc1ccc(=O)n(-c2ccccc2)c1` [Pirfenidone]: the “% 25 nM CA200645 binding” value was 96.4 ± 15.8%.

As to `O=[N+]([O-])c1cccc2c(Br)n[nH]c12` [3-Bromo-7-nitroindazole], the “% 25 nM CA200645 binding” value came to 81.2 ± 6.7%. The same measure, in the same setting: the same measure for `CCCC(C(=O)OCCN(CC)CC)(c1ccccc1)c1ccccc1.Cl` [SKF-525A hydrochloride]: 95.3 ± 9.0%; for `NC(=O)c1ncn([C@@H]2O[C@H](CO)[C@@H](O)[C@H]2O)n1` [Ribavirin]: 103.3 ± 14.0%; for `N.N.[Cl][Pt][Cl]` [Cisplatin]: 69.0 ± 8.2%. On the same count and under the same terms, the figure for `Cc1nn(-c2ccccc2)c(C)c1/C=N/N1CCN(Cc2ccccc2)CC1` [SANT-1] is 82.1 ± 15.9%; for `CC[C@@H](CO)NC(=O)[C@@H]1C=C2c3cccc4[nH]cc(c34)C[C@H]2N(C)C1` [Methylergonovine maleate] it is 91.6 ± 8.0%.

On to `CN/C(=N/CCSCc1nc[nH]c1C)NC#N` [Cimetidine], for which the “% 25 nM CA200645 binding” value is recorded as 94.0 ± 4.0%. Turning to `c1ccc(-c2ccccn2)nc1` [2,2'-Bipyridyl], the “% 25 nM CA200645 binding” value worked out at 105.2 ± 7.5%. Turning to `CN1[C@@H]2CC[C@H]1C[C@@H](OC(c1ccccc1)c1ccccc1N)C2` (stereo partly shown) [Aminobenztropine], the “% 25 nM CA200645 binding” value is recorded as 92.7 ± 5.2%. On the same count and under the same terms, the figure for `CC(Cc1ccc(O)c(O)c1)C(C)Cc1ccc(O)c(O)c1` (stereo not shown) is 79.3 ± 28.3%; for `CCCCCCCC/C=C\CCCCCCCC(=O)NCCO` [N-Oleoylethanolamine] it is 98.2 ± 10.8%.

With `Nc1nc2ccc(Cl)cc2c2nc(-c3ccco3)nn12` [CGS-15943], the “% 25 nM CA200645 binding” value is listed as 30.0 ± 3.0%. On the same count and under the same terms, the same measure for `CC(C)NNC(=O)c1ccncc1.O=P(O)(O)O` [Iproniazid phosphate]: 103.0 ± 5.6%. For `O=C(O)c1ccccc1Nc1cccc(OCc2ccc3ccccc3n2)c1` [SR 2640], under setting [1], the “% 25 nM CA200645 binding” value was determined as 103.1 ± 17.1%. `CNCC[C@H](Oc1ccc(C(F)(F)F)cc1)c1ccccc1.Cl` [S-(+)-Fluoxetine hydrochloride]: the “% 25 nM CA200645 binding” value is 102.0 ± 9.9%. In the case of `CN1CCC(=C2c3ccccc3C=Cc3ccccc32)CC1` [Cyproheptadine hydrochloride], the “% 25 nM CA200645 binding” value is 96.0 ± 5.5%. Same read-out and setting: the same measure for `CC1(C)CCC2=C(O1)c1ccccc1C(=O)C2=O` [beta-Lapachone]: 93.1 ± 5.0%.

With `C/C=C(/C)C(=O)O[C@H]1C(C)=C2[C@H]([C@@H]1OC(=O)CCCCCCC)[C@@](C)(OC(C)=O)C[C@H](OC(=O)CCC)[C@@]1(O)[C@H]2OC(=O)[C@@]1(C)O` [Thapsigargin], the “% 25 nM CA200645 binding” value is given as 65.1 ± 10.7%. On the same count and under the same terms, the figure for `CCCCc1ncc(/C=C(\Cc2cccs2)C(=O)O)n1Cc1ccc(C(=O)O)cc1` [Eprosartan mesylate] is 97.5 ± 15.0%; for `Fc1ccc([C@@H]2CCNC[C@H]2COc2ccc3c(c2)OCO3)cc1` [Paroxetine hydrochloride hemihydrate] it is 97.2 ± 4.3%. For the compound `CCCCCCCCCCCCCCSCC(=O)O` [Tetradecylthioacetic acid], under setting [1], the “% 25 nM CA200645 binding” value is given as 101.3 ± 12.1%. As to `O=C1c2c(O)ccc(O)c2C(=O)c2c(NCCNCCO)ccc(NCCNCCO)c21` [Mitoxantrone], the “% 25 nM CA200645 binding” value came to 88.5 ± 12.7%. The same measure, in the same setting: the figure for `C1COC(NC(C2CC2)C2CC2)=N1` [Rilmenidine hemifumarate] is 100.9 ± 6.4%. Same read-out and setting: the figure for `O=C(O)c1ccccc1Nc1ccccc1` [N-Phenylanthranilic acid] is 95.2 ± 6.4%; for `NCCCNCCCCNCCCN` [Spermine tetrahydrochloride] it is 105.8 ± 16.0%; for `CC(C)N(CCC(=O)c1ccc2ccccc2c1)Cc1ccccc1.Cl` [ZM 39923 hydrochloride] it is 115.5 ± 23.0%. For the compound `CN1[C@@H]2CC[C@H]1C[C@@H](OC(c1ccccc1)c1ccccc1)C2` [Benztropine mesylate], the “% 25 nM CA200645 binding” value was determined as 96.0 ± 5.8%. The same measure, in the same setting: the same measure for `Clc1ccc(C(c2ccc(Cl)cc2)n2cc[n+](CC(OCc3ccc(Cl)cc3Cl)c3ccc(Cl)cc3Cl)c2)cc1` (stereo not shown) [Calmidazolium chloride]: 54.4 ± 19.1%; for `Cl.Oc1cc2c(cc1O)C(c1ccccc1)CNCC2` (racemic) [(±)-SKF-38393 hydrochloride]: 99.4 ± 9.0%; for `CC[N+](CC)(CC)CCOc1cccc(OCC[N+](CC)(CC)CC)c1OCC[N+](CC)(CC)CC` [Gallamine triethiodide]: 78.3 ± 38.7%.

With `CCc1ccccc1OC[C@@H](O)CN[C@H]1CCCc2ccccc21.O=C(O)C(=O)O` [SR 59230A oxalate], the “% 25 nM CA200645 binding” value is reported as 94.8 ± 26.7%. On the same count and under the same terms, the same measure for `CC1=C(C(=O)O)N2C(=O)[C@@H](NC(=O)[C@H](N)C3=CCC=CC3)[C@H]2SC1` [Cephradine]: 95.6 ± 1.1%. For `N#CC(C#N)=C(N)/C(C#N)=C/c1cc(O)c(O)c(O)c1` [Tyrphostin 51], under setting [1], the “% 25 nM CA200645 binding” value was 94.9 ± 2.9%.

Regarding `NC(=O)c1ncn([C@@H]2O[C@H](CO)[C@@H](O)[C@H]2O)c1O` [Mizoribine], the “% 25 nM CA200645 binding” value turned out to be 101.6 ± 4.8%. On to `CSc1ccc(C(=O)c2[nH]c(=O)[nH]c2C)cc1` [Enoximone], for which the “% 25 nM CA200645 binding” value amounted to 102.3 ± 5.2%. As to `Cn1c(=O)c2c(nc(/C=C/c3cccc(Cl)c3)n2C)n(C)c1=O` [CSC, reference compound], for the setting “10 μM compound, 25 nM CA200645, A3AR CHO cells”, the “hit in LOPAC primary screen (inhibited the binding of CA200645 by >40%)” value is “not identified as hits”. trans-(±)-ACPD: the “% 25 nM CA200645 binding” value was 83.6 ± 13.4%. Still for that read-out and setting: the same measure for `Nc1ccc(N2C(=O)c3ccccc3C2=O)c(Cl)c1` [N-(4-Amino-2-chlorophenyl)phthalimide]: 91.1 ± 7.1%.

For `CCOC(=O)[C@H](CCc1ccccc1)N[C@@H](C)C(=O)N1[C@H](C(=O)O)C[C@H]2CCCC[C@@H]21` [Trandolapril], the “% 25 nM CA200645 binding” value was found to be 99.7 ± 12.5%. The same measure, in the same setting: the figure for `C[C@H](O)[C@H](O)[C@H]1CNc2nc(N)[nH]c(=O)c2N1.Cl` is 101.6 ± 17.7%.

`O=C1NC(=O)[C@@]2(CCOc3ccc(F)cc32)N1` [Sorbinil]: the “% 25 nM CA200645 binding” value under setting [1] is recorded as 96.4 ± 14.0%.

Consider `NS(=O)(=O)C#Cc1ccccc1` [Pifithrin-mu], for which the “% 25 nM CA200645 binding” value was found to be 92.3 ± 34.4%. As for `C=C(C)[C@H]1Cc2c(ccc3c2O[C@@H]2COc4cc(OC)c(OC)cc4[C@@H]2C3=O)O1` [Rotenone], the “% 25 nM CA200645 binding” value was 92.4 ± 12.1%. On the same count and under the same terms, the same measure for `C[N+]1(C)C2CCC1CC(OC(=O)c1c[nH]c3ccccc13)C2.[I-]` (stereo not shown): 95.6 ± 4.9%.

Take `NS(=O)(=O)c1cc2c(cc1Cl)NC(C1CC3C=CC1C3)NS2(=O)=O` (stereo not shown) [Cyclothiazide]: the “% 25 nM CA200645 binding” value worked out at 93.2 ± 4.7%.

For `O=C(O)/C=C/c1ccc(O)c(O)c1` [Caffeic Acid], the “% 25 nM CA200645 binding” value (% of control wells (1% DMSO and 25 nM CA200645), compounds at 10 µM, whole live cells expressing the A3AR, mean ± SD, three experiments in duplicate) was 100.0 ± 4.2%. For the compound `COc1cc(N)c(Cl)cc1C(=O)OCCN1CCCCC1` [ML 10302], the “% 25 nM CA200645 binding” value was 105.8 ± 6.4%. On the same count and under the same terms, the same measure for `CN(CC[C@@H](Oc1ccc(C(F)(F)F)cc1)c1ccccc1)CC(=O)[O-].[Li+]` [Org 24598 lithium salt]: 94.3 ± 5.8%.
